Literature values in patent publication US12251395B2, “RNAS for complement inhibition” (Apellis Pharmaceuticals, Inc., priority 2019, dated 2025).
Bridges are numbered along the chain shown (N, C = ends). [ ]: non-standard residue; d: D form. Trp(5-F) = N[C@@H](Cc1c[nH]c2ccc(F)cc12)C(=O)O; Trp(5-Me) = Cc1ccc2[nH]cc(C[C@H](N)C(=O)O)c2c1; Trp(6-F) = N[C@@H](Cc1c[nH]c2cc(F)ccc12)C(=O)O; Bpa = N[C@@H](Cc1ccc(C(=O)c2ccccc2)cc1)C(=O)O; 1Nal = N[C@@H](Cc1cccc2ccccc12)C(=O)O; 2Nal = N[C@@H](Cc1ccc2ccccc2c1)C(=O)O; Igl = N[C@H](C(=O)O)C1Cc2ccccc2C1

Tested on: complement activation
Details: relative to compstatin amidated at the C-terminus; published data

Row | Compound | Activity over corn statin
1 | Ac-ICV(Bpa)QDWGAHRCT-CONH2 (Ac-ICV[Bpa]QDWGAHRCT-NH2; disulfide 2-12 (inferred)) [Ac-V4(Bpa)/H9A] | 86xmore
2 | Ac-ICV(1-Nal)QDWGAHRCT-COOH (Ac-ICV[1Nal]QDWGAHRCT-OH; disulfide 2-12 (inferred)) [Ac V4(1-Nal)/H9A -OH] | 30xmore
3 | H-GICV(6fW)QD(6fW)GAHRCTN-COOH (H-GICV[Trp(6-F)]QD[Trp(6-F)]GAHRCTN-OH; disulfide 3-13 (inferred)) [+G/V4(6fW)/W7(6fW)H9A+FN-OH] | 126xmore
4 | Ac-ICVWQDWGAHRCdT-COOH [Ac-V4W/H9A/T13dT -OH] | 55xmore
5 | Ac-ICVYQDWGAHRCT-CONH2 [Ac-V4Y/H9A] | 14xmore
6 | Ac-ICV(2-IgI)QDWGAHRCT-CONH2 (Ac-ICV[Igl]QDWGAHRCT-NH2; disulfide 2-12 (inferred)) [Ac-V42IgI/H9A] | 39xmore
7 | Ac-ICV(2-IgI)QDWGAHRCT-COOH (Ac-ICV[Igl]QDWGAHRCT-OH; disulfide 2-12 (inferred)) [Ac-V42IgI/H9A -OH] | 37xmore
8 | Ac-ICVWQD(5fW)GAHRCT-CONH2 (Ac-ICVWQD[Trp(5-F)]GAHRCT-NH2; disulfide 2-12 (inferred)) [Ac-V4W/W7(5fW)/H9A] | 121xmore
9 | Ac-ICV(Bpa)QDWGAHRCT-COOH (Ac-ICV[Bpa]QDWGAHRCT-OH; disulfide 2-12 (inferred)) [Ac-V4(Bpa)/H9A -OH] | 49xmore
10 | Ac-ICWQDWGHHRCT-NH2 (cysteine pairing not given here) [Ac-compstatin] | 3xmore
11 | H-GICV(5fW)QD(5fW)GAHRCTN-COOH (H-GICV[Trp(5-F)]QD[Trp(5-F)]GAHRCTN-OH; disulfide 3-13 (inferred)) [G/V4(5f-W)/W7(5fW)/H9A+FN-OH] | 112xmore
12 | Ac-ICV(5-methyl-W)QDWGAHRCT-CONH2 (Ac-ICV[Trp(5-Me)]QDWGAHRCT-NH2; disulfide 2-12 (inferred)) [Ac-V4(5-MeW)/H9A] | 67xmore
13 | Ac-ICV(2-Nal)QDWGAHRCT-COOH (Ac-ICV[2Nal]QDWGAHRCT-OH; disulfide 2-12 (inferred)) [Ac V4(2-Nal)/H9A -OH] | 38xmore
14 | Ac-ICVWQDWGAHRCT-CONH2 (Ac-ICVWQDWGAHRCT-NH2; disulfide 2-12 (inferred)) [Ac-V4W/H9A] | 45xmore
15 | Ac-ICV(5fW)QDWGAHRCT-CONH2 (Ac-ICV[Trp(5-F)]QDWGAHRCT-NH2; disulfide 2-12 (inferred)) [Ac-V4(5fW)/H9A] | 31xmore
16 | Ac-ICV(2-Nal)QDWGAHRCT-CONH2 (Ac-ICV[2Nal]QDWGAHRCT-NH2; disulfide 2-12 (inferred)) [Ac-V4(2-Nal)/H9A] | 99xmore

Tested on: complement activation
Details: alternative pathway-mediated erythrocyte lysis assay (WO2004/026328); read-out: IC50 of compstatin

Row | IC50 | Compound
17 | 12 µM | CC[C@H](C)[C@H](N)C(=O)N[C@H]1CSSC[C@@H](C(=O)N[C@H](C(N)=O)[C@@H](C)O)NC(=O)[C@H](CCCN=C(N)N)NC(=O)[C@H](Cc2cnc[nH]2)NC(=O)[C@H](Cc2cnc[nH]2)NC(=O)CNC(=O)[C@H](Cc2c[nH]c3ccccc23)NC(=O)[C@H](CC(=O)O)NC(=O)[C@H](CCC(N)=O)NC(=O)[C@H](C(C)C)NC(=O)[C@H](C(C)C)NC1=O [Compstatin, H-ICVVQDWGHHRCT-CONH2]
